This note sets out measurements from US20240182453A1, “NOVEL SUBSTITUTED PYRAZINE-CARBOXAMIDE DERIVATIVES” (Boehringer Ingelheim International GmbH, priority 2022, published 2024).

The structures appear in SMILES notation.

The test has as its target human metabotropic Glutamate 4 receptor (mGluR4) (Homo sapiens (Human), UniProt Q14833). The experiment in a line: Assay A: in vitro testing of mGluR4 potency (glutamate-induced cAMP lowering, HTRF cAMP). The test is classed as cell-based. The settings on record: HEK293 cells overexpressing human mGluR4; 10 uM L-glutamic acid, 1 uM forskolin; compounds of the present invention. Put shortly:
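HEK293 cells overexpressing human mGluR4 treated 30 min at room temperature with compound plus 10 uM L-glutamate, 1 uM forskolin, 0.5 mM IBMX, 0.1% BSA, 1% DMSO. cAMP read by HTRF (665/615 nm ratio), normalized to glutamate (100%) and no-glutamate (0%) controls as percent of control.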
In general terms: In TR-FRET formats the signal depends on donor and acceptor labels being close together.

Chain of human metabotropic Glutamate 4 receptor (mGluR4) (Q14833 33-912): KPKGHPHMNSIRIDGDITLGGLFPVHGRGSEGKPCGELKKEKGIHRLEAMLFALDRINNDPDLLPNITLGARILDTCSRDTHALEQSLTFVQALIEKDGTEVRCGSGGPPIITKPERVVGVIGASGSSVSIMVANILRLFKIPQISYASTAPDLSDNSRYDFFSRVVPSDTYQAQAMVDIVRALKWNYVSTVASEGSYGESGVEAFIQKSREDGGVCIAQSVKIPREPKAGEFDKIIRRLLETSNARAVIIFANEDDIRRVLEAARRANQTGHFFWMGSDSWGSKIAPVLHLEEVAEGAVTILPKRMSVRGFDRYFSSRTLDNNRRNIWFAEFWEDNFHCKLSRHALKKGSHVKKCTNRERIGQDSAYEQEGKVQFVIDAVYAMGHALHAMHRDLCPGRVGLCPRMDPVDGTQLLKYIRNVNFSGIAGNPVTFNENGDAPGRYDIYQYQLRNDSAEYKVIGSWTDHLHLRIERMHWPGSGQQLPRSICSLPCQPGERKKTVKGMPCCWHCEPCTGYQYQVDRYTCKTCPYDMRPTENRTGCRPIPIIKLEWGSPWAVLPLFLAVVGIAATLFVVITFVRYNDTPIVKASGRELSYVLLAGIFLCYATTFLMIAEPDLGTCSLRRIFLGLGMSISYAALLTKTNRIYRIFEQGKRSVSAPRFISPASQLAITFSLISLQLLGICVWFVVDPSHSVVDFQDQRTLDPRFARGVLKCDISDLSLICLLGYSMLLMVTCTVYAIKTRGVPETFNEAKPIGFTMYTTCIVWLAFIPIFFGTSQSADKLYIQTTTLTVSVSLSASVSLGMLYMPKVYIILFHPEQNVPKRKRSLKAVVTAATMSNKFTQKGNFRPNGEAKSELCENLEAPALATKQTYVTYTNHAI

Consider `O=C(N[C@@H](CC1CC1)c1nc2cc(F)c(F)cc2n1CCOC(F)F)c1cnc(C(F)F)cn1` [Example 111, N-[(1S)-2-cyclopropyl-1-{1-[2(difluoromethoxy)ethyl]-5,6-difluoro-1H-1,3-benzodiazol-2-yl}ethyl]-5-(difluoromethyl)pyrazine-2-carboxamide], for which the IC50 was found to be 10 nM. This counts as double-digit nanomolar.

Compound `COc1c(Cl)ccc2c1nc([C@@H](NC(=O)c1cnc(C)cn1)C1CC1)n2C` [Example 112, N-[(S)-(5-chloro-4-methoxy-1-methyl-1H-1,3-benzodiazol-2-yl)(cyclopropyl)methyl]-5-methylpyrazine-2-carboxamide] returned a concentration for half-maximal inhibition (IC50) of 15 nM.

In the case of `Cn1c([C@@H](NC(=O)c2cnc(C(F)F)cn2)[C@H]2CCCO2)nc2cc(OC(F)(F)F)ccc21` [Example 113, 5-(difluoromethyl)-N-[(R)-[1-methyl-5-(trifluoromethoxy)-1H-1,3-benzodiazol-2-yl][(2R)-oxolan-2-yl]methyl]pyrazine-2-carboxamide], the 50% inhibitory concentration (IC50) was 17 nM.

As to `Cn1c(C(NC(=O)c2cnc(C(F)F)cn2)C2CCCO2)nc2cc(OC(F)(F)F)ccc21` (centres unmarked) [Example 113-1, 5-(difluoromethyl)-N-{[1-methyl-5-(trifluoromethoxy)-1H-1,3-benzodiazol-2-yl](oxolan-2-yl)methyl}pyrazine-2-carboxamide], the IC50 amounted to 45 nM. Compared with the last compound, the IC50 is about 2.6-fold higher.

Turning to `O=C(N[C@@H](CC1CC1)c1nc2cc(F)ccc2n1C1CC1)c1cnc(C(F)F)cn1` [Example 114, N-[(1S)-2-cyclopropyl-1-(1-cyclopropyl-5-fluoro-1H-1,3-benzodiazol-2-yl)ethyl]-5-(difluoromethyl)pyrazine-2-carboxamide], inhibition was half-maximal at 15 nM (IC50).

For `Cc1cnc(C(=O)N[C@H](c2nc3cc(OC(F)(F)F)ccc3n2C2CC2)C2CC2)cn1` [Example 115, N-[(S)-cyclopropyl[1-cyclopropyl-5-(trifluoromethoxy)-1H-1,3-benzodiazol-2-yl]methyl]-5-methylpyrazine-2-carboxamide], the IC50 was 9 nM.

Regarding `Cc1cnc(C(=O)N[C@H](c2nc3cc(C(F)(F)F)ccc3n2C2CC2)C2CC2)cn1` [Example 116, N-[(S)-cyclopropyl[1-cyclopropyl-5-(trifluoromethyl)-1H-1,3-benzodiazol-2-yl]methyl]-5-methylpyrazine-2-carboxamide], half-maximal inhibition (IC50) was put at 13 nM.

For `O=C(N[C@@H](CC1CC1)c1nc2cc(Cl)ccc2n1C1CC1)c1cnc(C(F)F)cn1` [Example 117, N-[(1S)-1-(5-chloro-1-cyclopropyl-1H-1,3-benzodiazol-2-yl)-2-cyclopropylethyl]-5-(difluoromethyl)pyrazine-2-carboaxamide], the IC50 is 8 nM.

`O=C(N[C@@H](CC1CC1)c1nc2cc(F)c(F)cc2n1C1CC1)c1cnc(C(F)F)cn1` [Example 118, N-[(1S)-2-cyclopropyl-1-(1-cyclopropyl-5,6-difluoro-1H-1,3-benzodiazol-2-yl)ethyl]-5-(difluoromethyl)pyrazine-2-carboxamide] yielded an IC50 of 14 nM.

`CO[C@H](C)[C@H](NC(=O)c1cnc(C)cn1)c1nc2cc(OC(F)(F)F)ccc2n1CCOC1CC1` [Example 119, N-[(1R,2R)-1-[1-(2-cyclopropoxyethyl)-5-(trifluoromethoxy)-1H-1,3-benzodiazol-2-yl]-2-methoxypropyl]-5-methylpyrazine-2-carboxamide] yielded a half-inhibitory concentration (IC50) of 1 nM.

`CO[C@H](C)[C@H](NC(=O)c1cnc(C)cn1)c1nc2cc(OC(F)(F)F)ccc2n1CCOC1CCC1` [Example 120, N-[(1R,2R)-1-[1-(2-cyclobutoxyethyl)-5-(trifluoromethoxy)-1H-1,3-benzodiazol-2-yl]-2-methoxypropyl]-5-methylpyrazine-2-carboxamide] yielded an IC50 of 1 nM.

`COCCn1c([C@@H](NC(=O)c2cnc(C(F)F)cn2)[C@@H](C)OC)nc2cc(OC(F)(F)F)ccc21` [Example 121, 5-(difluoromethyl)-N-[(1R,2R)-2-methoxy-1-[1-(2-methoxyethyl)-5-(trifluoromethoxy)-1H-1,3-benzodiazol-2-yl]propyl]pyrazine-2-carboxamide] came in with an IC50 of 1 nM. That is a single-digit nanomolar value.

On to `Cc1cnc(C(=O)N[C@H](c2nc3c(C4CC4)c(Br)ccc3n2C)C2CC2)cn1` [Example 122, N-[(S)-(5-bromo-4-cyclopropyl-1-methyl-1H-1,3-benzodiazol-2-yl)(cyclopropyl)methyl]-5-methylpyrazine-2-carboxamide], for which half-maximal inhibition (IC50) was put at 1 nM.

Regarding `CO[C@H](C)[C@H](NC(=O)c1cnc(C)cn1)c1nc2cc(OC(F)(F)F)ccc2n1C(C)C` [Example 123, N-[(1R,2R)-2-methoxy-1-[1-(propan-2-yl)-5-(trifluoromethoxy)-1H-1,3-benzodiazol-2-yl]propyl]-5-methylpyrazine-2-carboxamide], the 50% inhibitory concentration (IC50) was 3 nM.

`COCCn1c([C@@H](NC(=O)c2cnc(C(F)(F)F)cn2)[C@@H](C)OC)nc2cc(OC(F)(F)F)ccc21` [Example 124, N-[(1R,2R)-2-methoxy-1-[1-(2-methoxyethyl)-5-(trifluoromethoxy)-1H-1,3-benzodiazol-2-yl]propyl]-5-(trifluoromethyl)pyrazine-2-carboxamide] returned an IC50 of 4 nM. This IC50 and that of the compound before are within 1.5-fold of each other.

On to `Cc1cnc(C(=O)N[C@@H](CC2CC2)c2nc3cc(Cl)ccc3n2CCOC(F)F)cn1` [Example 125, N-[(1S)-1-{5-chloro-1-[2-(difluoromethoxy)ethyl]-1H-1,3-benzodiazol-2-yl}-2-cyclopropylethyl]-5-methylpyrazine-2-carboxamide], for which half-maximal inhibition (IC50) was put at 7 nM.

For the compound `COCCn1c([C@@H](NC(=O)c2cnc(C)cn2)C(C)(C)O)nc2cc(C(F)(F)F)ccc21` [Example 126, N-[(1R)-2-hydroxy-1-[1-(2-methoxyethyl)-5-(trifluoromethyl)-1H-1,3-benzodiazol-2-yl]-2-methylpropyl]-5-methylpyrazine-2-carboxamide], the IC50 was found to be 14 nM.

`CCn1c([C@@H](NC(=O)c2cnc(C)cn2)C2CC(F)(F)C2)nc2cc(F)ccc21` [Example 127, N-[(S)-(3,3-difluorocyclobutyl)(1-ethyl-5-fluoro-1H-1,3-benzodiazol-2-yl)methyl]-5-methylpyrazine-2-carboxamide] showed a half-maximal inhibitory concentration (IC50) of 8 nM.

As for `Cc1cnc(C(=O)N[C@@H](CC2CC2)c2nc3cc(F)c(F)cc3n2CCOC(F)F)cn1` [Example 128, N-[(1S)-2-cyclopropyl-1-{1-[2-(difluoromethoxy)ethyl]-5,6-difluoro-1H-1,3-benzodiazol-2-y1}ethyl]-5-methylpyrazine-2-carboxamide], the IC50 worked out at 8 nM.

As to `COC[C@@H](C)n1c([C@@H](NC(=O)c2cnc(C)cn2)[C@@H](C)OC)nc2cc(OC(F)(F)F)ccc21` [Example 129, N-[(1R,2R)-2-methoxy-1-{1-[(2R)-1-methoxypropan-2-yl]-5-(trifluoromethoxy)-1H-1,3-benzodiazol-2-yl}propyl]-5-methylpyrazine-2-carboxamide], the half-maximal inhibitory concentration (IC50) amounted to 9 nM.

`COCCCn1c([C@@H](NC(=O)c2cnc(C)cn2)[C@@H](C)OC)nc2cc(OC(F)(F)F)ccc21` [Example 130, N-[(1R,2R)-2-methoxy-1-[1-(3-methoxypropyl)-5-(trifluoromethoxy)-1H-1,3-benzodiazol-2-yl]propyl]-5-methylpyrazine-2-carboxamide] showed an IC50 of 13 nM.

As to `CO[C@H](C)[C@H](NC(=O)c1cnc(C)cn1)c1nc2cc(OC(F)(F)F)ccc2n1C1CC1` [Example 131, N-[(1R,2R)-1-[1-cyclopropyl-5-(trifluoromethoxy)-1H-1,3-benzodiazol-2-yl]-2-methoxypropyl]-5-methylpyrazine-2-carboxamide], the IC50 was 14 nM.

The compound `Cc1cnc(C(=O)N[C@H](c2nc3ccc(C(F)(F)F)cc3n2CC(F)F)C2CC2)cn1` [Example 138, N-[(S)-cyclopropyl[1-(2,2-difluoroethyl)-6-(trifluoromethyl)-1H-1,3-benzodiazol-2-yl]methyl]-5-methylpyrazine-2-carboxamide] registered an IC50 of 3 nM.

The compound `CCn1c([C@@H](NC(=O)c2cnc(C)cn2)[C@@H]2CCOC2)nc2cc(C(F)(F)F)ccc21` [Example 140, N-[(S)-[1-ethyl-5-(trifluoromethyl)-1H-1,3-benzodiazol-2-yl][(3S)-oxolan-3-yl]methyl]-5-methylpyrazine-2-carboxamide] registered an IC50 of 12 nM.

As for `Cc1cnc(C(=O)N[C@H](c2nc3cc(C(F)(F)F)ccc3n2CC(F)F)[C@H]2CCOC2)cn1` [Example 142, N-[(S)-[1-(2,2-difluoroethyl)-5-(trifluoromethyl)-1H-1,3-benzodiazol-2-yl][(3R)-oxolan-3-yl]methyl]-5-methylpyrazine-2-carboxamide], the IC50 is 8 nM.

`CCn1c([C@@H](NC(=O)c2cnc(C)cn2)[C@H]2CCOC2)nc2cc(F)ccc21` [Example 144, N-[(S)-(1-ethyl-5-fluoro-1H-1,3-benzodiazol-2-yl)[(3R)-oxolan-3-yl]methyl]-5-methylpyrazine-2-carboxamide] had an IC50 of 41 nM.

Take `Cc1cnc(C(=O)N[C@H](c2nc3ccc(C(F)(F)F)cc3n2CC(F)F)[C@@H]2CCOC2)cn1` [Example 145, N-[(S)-[1-(2,2-difluoroethyl)-6-(trifluoromethyl)-1H-1,3-benzodiazol-2-yl][(3S)-oxolan-3-yl]methyl]-5-methylpyrazine-2-carboxamide]: inhibition was half-maximal at 41 nM (IC50). That is a double-digit nanomolar value.

`CCn1c([C@@H](NC(=O)c2cnc(C)cn2)[C@]2(O)CCCOC2)nc2cc(C(F)(F)F)ccc21` [Example 149, N-[(R)-[1-ethyl-5-(trifluoromethyl)-1H-1,3-benzodiazol-2-yl][(3R)-3-hydroxyoxan-3-yl]methyl]-5-methylpyrazine-2-carboxamide] registered an IC50 of 3 nM.

`CCn1c([C@@H](NC(=O)c2cnc(C)cn2)[C@]2(O)CCCOC2)nc2cc(F)ccc21` [Example 150, N-[(R)-(1-ethyl-5-fluoro-1H-1,3-benzodiazol-2-yl)[(3R)-3-hydroxyoxan-3-yl]methyl]-5-methylpyrazine-2-carboxamide] returned an IC50 of 14 nM.

By IC50 is commonly meant the midpoint of a concentration-inhibition curve. Higher therefore signals weaker potency in that assay.
